Columns and labels:
[1] = test system: human insulin; assay: Physical stability of insulin solution with stabiliser, visual inspection for precipitation on storage at 5 °C; assay type: physicochemical; conditions: 0.5 Zn2+/insulin, NaCl 15 mM, glycylglycine 7 mM, tween 20 0.01 %, pH 7.5
Method: (§1) 27.5 ml of a 21 mM insulin stock solution was made by dissolving 3.707 g zinc free human insulin in 14 ml water and adding 2888 µl of 0.1 M ZnCl2 and 7 ml water before adjusting pH to 7.5 by 0.2 M NaOH and finally adding water to 27.5 ml, calculating the specific volume of insulin as 0.7 µl/mg. The stock solution was filtrated. A preparation of 3.5 ml 15 mM insulin was then made by adding 23 µl 2.3 M stabiliser in ethanol, 49 µl 0.5 M glycylglycine and 35 µl 1 % Tween 20 and water to 3.5 ml. The solution was thereafter diluted with medium containing sodium chloride 15 mM, glycylglycine 7 mM, Tween 20 0.01 %, pH 7.5 to 12, 9, 6, 3 and 0.6 mM insulin and stored at 5 °C for visual inspection. The reference solution was made by the same way but without adding a stabiliser. The chemical stability of the insulin solutions were followed at 37 °C for two concentrations, 3 and 15 mM, by determination of covalent insulin polymer by size exclusion chromatography. The analysis of insulin polymer was performed on Waters PROTEIN PAK 125 (250 x 8 mm) with an eluent containing 2.5 M acetic acid, 4 mM L-arginine and 20 %(V/V) acetonitrile at a flow rate of 1 ml/min. and ambient temperature. Detection was performed with a tunable absorbance detector (Waters 486) at 276 nm. Injection volume were […] for 3 and 15 mM insulin solutions, respectively.
(§2) 3.26 g human insulin (0.4 equivalent Zn^2+ per insulin) was dispersed in water in 18 ml water on icebath and added 490 µl 0.5 M glycylglycine and 1628 µl sodium hydroxide (3.1 equivalent) and stirred slowly overnight at 5 °C. 613 µl 0.1 M zinc chloride (0.1 equivalent of zinc) was then added the solution, pH adjusted to 7.5 by 410 µl 1 M hydrochloric acid (0.8 equivalent of chloride) and the volume adjusted to 25 ml by water. Finally the stock solution of 21 mM insulin was filtrated. 3.57 ml of the stock solution was added 50 µl 1 % tween 20, 750 µl 0.1 M stabiliser and 630 µl water to obtain 5 ml 15 mM insulin formulation. Finally the preparation was diluted with medium containing sodium chloride, glycylglycine and detergent to obtain 12, 9, 6, and 3 mM of human insulin and stored at 5 °C for visual inspection. The chemical stability of 3 and 15 mM insulin solutions were followed at 37 °C by determination of covalent insulin polymer by size exclusion chromatography.

[2] = test system: human insulin; assay: Chemical stability at 37 °C, covalent insulin polymer determined by size exclusion chromatography; assay type: physicochemical; conditions: stabiliser equimolar to insulin, 0.5 Zn2+/insulin, NaCl 15 mM, glycylglycine 7 mM, tween 20 0.01 %, pH 7.5
Method: as §1, §2

[3] = example 1, stabiliser equimolar to insulin
[4] = example 2, stabiliser equimolar to insulin

Structure (SMILES)	Physical stability of solution at 4 weeks and 5°C Maximal insulin concentration at which the solution was without precipitation up to 15 mM (3, 6, 9, 12, 15mM) [1, 3] [mM]	Chemical stability at 37°C (% polymer / week) Insulin solution of 3 mM ([2]; example 1, 3 mM insulin) [% polymer / week]	Chemical stability at 37°C (% polymer / week) Insulin solution of 15 mM ([2]; example 1, 15 mM insulin) [% polymer / week]	Physical stability of solution at 4 weeks and 5°C Maximal insulin concentration at which the solution was without precipitation up to 15 mM (3, 6, 9, 12, 15mM) [1, 4] [mM]	Chemical stability at 37°C (% polymer / week) Insulin solution of 3 mM ([2]; example 2, 3 mM insulin) [% polymer / week]	Chemical stability at 37°C (% polymer / week) Insulin solution of 15 mM ([2]; example 2, 15 mM insulin) [% polymer / week]
CC1(C)C2CCC1(C)C(O)C2 (single isomer, unassigned; (+)) [(+)-borneol]	9	0.47	0.61	–	–	–
CC1(C)C2CCC1(C)C(O)C2 (single isomer, unassigned; (-)) [(-)-borneol]	9	0.43	0.47	–	–	–
Oc1ccccc1 [phenol]	15	0.37	0.39	15	0.32	0.29
CC1(C)[C@H]2CC[C@H](CO)[C@@H]1C2 [(-)-trans-myrtanol]	15	0.64	0.95	–	–	–

The remaining lines, values ahead:

Physical stability of solution at 4 weeks and 5°C Maximal insulin concentration at which the solution was without precipitation up to 15 mM (3, 6, 9, 12, 15mM) [1, 3] [mM]	Chemical stability at 37°C (% polymer / week) Insulin solution of 3 mM ([2]; example 1, 3 mM insulin) [% polymer / week]	Chemical stability at 37°C (% polymer / week) Insulin solution of 15 mM ([2]; example 1, 15 mM insulin) [% polymer / week]	Physical stability of solution at 4 weeks and 5°C Maximal insulin concentration at which the solution was without precipitation up to 15 mM (3, 6, 9, 12, 15mM) [1, 4] [mM]	Chemical stability at 37°C (% polymer / week) Insulin solution of 3 mM ([2]; example 2, 3 mM insulin) [% polymer / week]	Chemical stability at 37°C (% polymer / week) Insulin solution of 15 mM ([2]; example 2, 15 mM insulin) [% polymer / week]	Structure (SMILES)
12	0.49	0.61	–	–	–	CC1C(O)CC2CC1C2(C)C (single isomer, unassigned; (+)) [(+)-isopinocampheol]
–	–	–	15	0.58	0.71	c1ncc2[nH]cnc2n1 [purine]
15	0.53	0.56	–	–	–	CC1C(O)CC2CC1C2(C)C (single isomer, unassigned; (-)) [(-)-isopinocampheol]
15	0.50	0.97	–	–	–	CC1(C)[C@H]2CC[C@](C)(C2)[C@H]1O [(+)-fenchol]
–	–	–	9	0.59	0.77	Nc1ncnc2nc[nH]c12 [adenine]

— patent EP1131089B1, “STABLE AQUEOUS INSULIN PREPARATIONS WITHOUT PHENOL AND CRESOL” (Novo Nordisk A/S, priority 1998, dated 2000)
